In patent US6160011A (priority 1998, dated 2000):
Read-outs that look alike come from different tables or passages of the source.

Experiments:
[1] = tested on: AR (plasmid pCMVhAR) in CV-1 cells; experiment: Transcriptional activation (AR-mediated luciferase reporter, cotransfected CV-1 cells); format: cell-based; conditions: for minimal effective concentration: read-out: Potency: lowest concentration of the ligand capable of maximally stimulating AR-mediated transcription
Procedure: The agonist activity of each ligand was examined using transfected CV-1 cells (American Type Culture Collection, Rockville, Md.). CV-1 cells were maintained in DMEM containing 10% FBS at 37° C. in a humidified atmosphere containing 5% carbon dioxide. DMEM without phenol red was used during transfection studies. One day before transfection, monolayer cells were removed from flasks and plated at a density of 4.5×10^5 cells/well in 6-well tissue culture plates. Cells in each well were then cotransfected with 100 ng of an AR expression vector (plasmid pCMVhAR; provided by Dr. Elizabeth Wilson at The University of North Carolina, Chapel Hill, N.C.), 2.5 μg of a luciferase reporter vector (plasmid pMMTV-Luc; provided by Dr. Ronald Evans at The Salk Institute, San Diego, Calif.), and 2.5 μg of a control β-galactosidase vector (plasmid pSV-β-galactosidase; Promega Corporation, Madison, Wis.). Transfection was performed using Lipofectamine™ according to the manufacturer's instructions (Life Technologies, Gaithersburg, Md.). Ten hours after adding the transfection reagent, cells were washed twice with DMEM containing 0.2% FBS and then returned to the incubator. After an additional 10 to 12 hours of incubation, the medium was removed and replaced with DMEM containing 0.2% FBS and various concentrations of DHT or the ligand of interest. Final ligand concentrations were 0.1, 1, 10, 50, 100, 500, and 1,000 nM. The drug-containing medium was replaced after 24 hours of incubation to minimize the possible effects of ligand degradation on measurement of transcriptional activation. Control studies in which neither DHT nor ligand were added to the medium were also performed. Cells were washed with phosphate buffered saline, pH 7.4, after 48 hours of drug treatment and harvested using 350 μL of reporter lysis buffer (Promega Corporation, Madison, Wis.). Cell lysates were transferred to a microcentrifuge tube, vortexed briefly, and centrifuged at 12,000 g for 2 minutes; An aliquot (150 μL) of supernatant was used for determination of β-galactosidase activity in each well using a spectrophotometer (Cary Model 1E, Varian Associates, Sunnyvale, Calif.) set at a wavelength of 420 nm. A separate aliquot (100 μL) was used for determination of luciferase activity assay (Luciferase Assay System, Promega Corporation, Madison, Wis.) using an automated luminometer (Model AutoLumat LB953, Wallac Inc., Gaithersburg, Md.). Viable cell numbers and transfection efficiency in each well were normalized by expressing the transcriptional activation as a ratio of the luciferase activity to β-galactosidase activity in individual wells. […] All experiments were performed in triplicate. Potency was reported as the lowest concentration of the ligand used during transfection experiments capable of producing maximal AR-mediated transcriptional activation.

AR = experiment: Covalent (irreversible) binding to the AR; conditions: studies not described
[2] = oral administration; cited from earlier work
[3] = cited from earlier work
[4] = target: T1, cytosolic androgen receptor (AR) (Rattus norvegicus, UniProt P15207); experiment: biochemical; format: binding, Sprague-Dawley rats
T1 construct: The supernatant (cytosol) containing AR protein was removed and stored; from tissue; host or cells: ventral prostate cytosol of castrated male Sprague-Dawley rats
T1 sequence (P15207 1-902): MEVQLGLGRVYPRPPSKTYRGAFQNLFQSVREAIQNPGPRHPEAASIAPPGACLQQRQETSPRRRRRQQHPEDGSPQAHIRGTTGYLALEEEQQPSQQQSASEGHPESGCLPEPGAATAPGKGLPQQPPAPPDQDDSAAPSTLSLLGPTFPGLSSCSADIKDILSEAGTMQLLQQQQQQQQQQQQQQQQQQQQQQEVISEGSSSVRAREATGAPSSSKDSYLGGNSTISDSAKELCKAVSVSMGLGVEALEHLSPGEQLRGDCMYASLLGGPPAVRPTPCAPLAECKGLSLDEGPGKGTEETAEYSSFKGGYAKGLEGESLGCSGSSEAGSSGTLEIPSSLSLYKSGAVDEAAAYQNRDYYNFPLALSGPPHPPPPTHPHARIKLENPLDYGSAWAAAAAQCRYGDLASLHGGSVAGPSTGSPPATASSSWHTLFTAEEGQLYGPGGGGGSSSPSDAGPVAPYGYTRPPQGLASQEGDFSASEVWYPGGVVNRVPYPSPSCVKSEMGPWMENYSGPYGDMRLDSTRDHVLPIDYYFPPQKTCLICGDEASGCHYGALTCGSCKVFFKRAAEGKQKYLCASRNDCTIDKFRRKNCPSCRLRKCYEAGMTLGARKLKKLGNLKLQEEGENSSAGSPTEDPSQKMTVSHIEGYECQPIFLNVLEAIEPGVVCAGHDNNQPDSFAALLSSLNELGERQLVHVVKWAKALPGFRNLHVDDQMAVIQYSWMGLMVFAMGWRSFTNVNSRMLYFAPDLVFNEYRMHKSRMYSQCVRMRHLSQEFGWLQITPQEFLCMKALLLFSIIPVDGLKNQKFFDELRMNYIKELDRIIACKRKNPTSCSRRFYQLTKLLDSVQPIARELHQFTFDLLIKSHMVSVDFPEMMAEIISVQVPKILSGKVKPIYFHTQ

sperm production in men = conditions: cited from earlier work
[5] = target: T1, cytosolic androgen receptor (AR); experiment: Saturation binding of 3H-MIB to AR in cytosol (Scatchard); parameters: species or system Sprague-Dawley rats; conditions: mean±S.D., n=3; 4° C., 18 hours
[6] = tested on: androgen receptor (in vivo functional activity); conditions: vs other antiandrogen therapies; cited from earlier work
[7] = CV-1, 48 h, read-out: Agonist Activity (% of DHT): maximal percentage of transcriptional activation observed for each ligand
[8] = healthy male volunteers, single oral dose of the racemic mixture
[9] = 3H-MIB 1 nM, 4° C., 18 hours, R-isomers of C-1 to C-5, read-out: Ki (Table 1)
[10] = CV-1, read-out: agonist activity

Which Emax [1, 7] does the source give for `C[C@]12CCC(=O)C[C@@H]1CC[C@@H]1[C@@H]2CC[C@]2(C)[C@@H](O)CC[C@@H]12` [DHT, dihydrotestosterone, reference compound] here?
The Emax was 100%.

With `C[C@](O)(CSc1ccc(NC(=O)CCl)cc1)C(=O)Nc1ccc(C#N)c(C(F)(F)F)c1` [C-1 (R)] as the molecule, how does the “covalent (irreversible) binding to AR” value (AR) read?
Its value is “does not covalently (i.e., irreversibly) bind the AR”.

Which “oral absorption / androgenic effect (in words)” value [2] does the source give for `C[C@]12CC[C@H]3[C@@H](CCC4=CC(=O)CC[C@@]43C)[C@@H]1CC[C@@H]2O` [testosterone] here?
Its value is “readily absorbed after oral administration, but demonstrates little androgenic effect due to rapid hepatic metabolism”.

With `C[C@](O)(CS(=O)(=O)c1ccc(F)cc1)C(=O)Nc1ccc(C#N)c(C(F)(F)F)c1` [R-Bicalutamide, reference compound] as the molecule, how does the elimination half-life [3, 8] read?
Its elimination half-life is 101 h.

What about the “AR-mediated transcriptional activation (in words)” value [1] of the same molecule?
Its value is “unable to stimulate AR-mediated transcriptional activation at even the highest concentrations tested”.

And the Emax [1, 7]?
Its Emax is 8.28 ± 2.66%.

And the Emax at 1 µM ([1]; CV-1, read-out: mean agonist activity at 1,000 nM)?
Its Emax at 1 µM is 8.3%.

With `CC(=O)N(C(C)=O)c1ccc(SC[C@](C)(O)C(=O)Nc2ccc(C#N)c(C(F)(F)F)c2)cc1` [C-9] as the molecule, how does the Ki [4] read?
Its Ki is 2.64 nM.

What about the “RBA (%): (IC50 of DHT)/(IC50 of a ligand)*100%” value (“RBA (%)” for short) [4] of the same molecule?
Its value is 10.2%.

For `C[C@](O)(CI)C(=O)Nc1ccc([N+](=O)[O-])c(C(F)(F)F)c1` [C-5], which Ki [4, 9] is on record?
The Ki was 0.86 ± 0.11 nM.

What about the Emax [1, 7] of the same molecule?
The Emax was 88.6 ± 18%.

What about the minimal effective concentration ([1]; CV-1, 48 h) of the same molecule?
Its minimal effective concentration is 0.5 µM.

With `CCCCCCC(=O)O[C@H]1CC[C@H]2[C@@H]3CCC4=CC(=O)CC[C@]4(C)[C@H]3CC[C@]12C` [testosterone enanthate] as the molecule, how does the “testosterone peak levels after injection (in words)” value (sperm production in men; immediately following intramuscular injection) read?
The value was “supraphysiologic peak levels of testosterone”.

What about the “azoospermia or severe oligospermia (less than 3 million sperm per ml) and infertility, share of men” value (sperm production in men; weekly intramuscular injections, WHO report) of the same molecule?
The value was 98%.

Which Ki [4] does the source give for `CC(=O)Nc1ccc(SC[C@@](C)(O)C(=O)Nc2ccc(C#N)c(C(F)(F)F)c2)cc1` [C-8 (S)] here?
The Ki was 141 nM.

And the “RBA (%)” value [4]?
Its value is 0.19%.

Which “elimination half-life (t1/2)” value [3, 8] does the source give for `C[C@@](O)(CS(=O)(=O)c1ccc(F)cc1)C(=O)Nc1ccc(C#N)c(C(F)(F)F)c1` [S-Casodex] here?
The value was 19 h.

Which Ki [4, 9] does the source give for `C[C@](O)(CBr)C(=O)Nc1ccc(C#N)c(C(F)(F)F)c1` [C-2] here?
Its Ki is 7.98 ± 0.86 nM.

And the Emax [1, 7]?
Its Emax is 18.5 ± 5.08%.

What about the minimal effective concentration ([1]; CV-1, 48 h) of the same molecule?
Its minimal effective concentration is 0.5 µM.

What about the Emax [1, 10] of the same molecule?
The Emax was under 20%.

For `C[C@@H]1CC2=CC(=O)CC[C@@H]2[C@H]2CC[C@@]3(C)[C@@H](CC[C@]3(C)O)[C@@H]21` [3H-MIB, (17α-methyl-^3 H)-Mibolerone], which Kd [5] is on record?
The Kd was 0.19 ± 0.01 nM.

What does the source list for `CC(O)(CS(=O)(=O)c1ccc(F)cc1)C(=O)Nc1ccc(C#N)c(C(F)(F)F)c1` (racemic) [Casodex]?
tolerance (in words) [6]: improved tolerance; oral absorption ([3]; after oral administration): well absorbed after oral administration; biological half-life ([3]; in man): 6 days

With `CCC(=O)Nc1ccc(SC[C@](C)(O)C(=O)Nc2ccc(C#N)c(C(F)(F)F)c2)cc1` [C-10] as the molecule, how does the Ki [4] read?
The Ki was 3.81 nM.

What about the “RBA (%)” value [4] of the same molecule?
The value was 7.08%.

For `C[C@](O)(CI)C(=O)Nc1ccc(C#N)c(C(F)(F)F)c1` [C-4], which Ki [4, 9] is on record?
Its Ki is 2.79 ± 1.35 nM.

And the Emax [1, 7]?
Its Emax is 20.5 ± 7.57%.

And the minimal effective concentration ([1]; CV-1, 48 h)?
The minimal effective concentration was 0.5 µM.

And the Emax [1, 10]?
Its Emax is under 20%.

What does the source list for `CC(=O)Nc1ccc(SC[C@](C)(O)C(=O)Nc2ccc(C#N)c(C(F)(F)F)c2)cc1` [C-8 (R)]?
Ki [4]: 1 nM; RBA (%): (IC50 of DHT)/(IC50 of a ligand)*100% [4]: 26.9%

For `CCC(=O)N(C(=O)CC)c1ccc(SC[C@](C)(O)C(=O)Nc2ccc(C#N)c(C(F)(F)F)c2)cc1` [C-11], which Ki [4] is on record?
The Ki was over 1000 nM.

What about the “RBA (%)” value [4] of the same molecule?
The value was under 0.10%.

For `CC(=O)Nc1ccc(S(=O)(=O)C[C@](C)(O)C(=O)Nc2ccc(C#N)c(C(F)(F)F)c2)cc1` [C-7], which Ki [4] is on record?
Its Ki is 1.7 nM.

What about the “RBA (%)” value [4] of the same molecule?
Its value is 15.9%.
